Literature values, collected in patent EP3072529B1, “COMPOSITION COMPRISING VEMURAFENIB AND HPMC-AS” (ratiopharm GmbH, priority 2015, dated 2016).

Conditions: reported

For CCCS(=O)(=O)Nc1ccc(F)c(C(=O)c2c[nH]c3ncc(-c4ccc(Cl)cc4)cc23)c1F [Vemurafenib base, propane-1-sulfonic acid {3-[5-(4-chlorophenyl)-1H-pyrrolo[2,3-b]pyridine-3-carbonyl]-2,4-difluorophenyl}-amide], the “solubility in aqueous and physiological solvents” value is listed as “practically insoluble”.
